PubChem BioAssay AID1259407 (Chemical Carcinogenesis Research Information System (CCRIS), 2018)
The source made the active and inactive calls. No rule for the calls is given here.

Tested on: CCRIS mutagenicity, Ames/micronucleus/aberration tests
Experiment: CCRIS mutagenicity studies
[1] = Test System: AMES SALMONELLA TYPHIMURIUM, Strain/Indicator: TA98, Metabolic Activation: NONE, Method: STANDARD PLATE
[2] = Test System: AMES SALMONELLA TYPHIMURIUM, Strain/Indicator: TA100, Metabolic Activation: NONE, Method: STANDARD PLATE
[3] = Test System: AMES SALMONELLA TYPHIMURIUM, Strain/Indicator: TA1535, Metabolic Activation: NONE, Method: STANDARD PLATE
[4] = Test System: AMES SALMONELLA TYPHIMURIUM, Strain/Indicator: TA1537, Metabolic Activation: NONE, Method: STANDARD PLATE

C[n+]1c2ccccc2c(N)c2ccccc21
mutagenic call (Test System: AMES SALMONELLA TYPHIMURIUM, Strain/Indicator: TA1535, Metabolic Activation: NONE, Method: PREINCUBATION): active; positive | mutagenic call (Test System: AMES SALMONELLA TYPHIMURIUM, Strain/Indicator: TA1535, Metabolic Activation: RAT, LIVER, S-9, TETRACHLOROBIPHENYL, Method: PREINCUBATION): active; positive | mutagenic call (Test System: AMES SALMONELLA TYPHIMURIUM, Strain/Indicator: TA1537, Metabolic Activation: NONE, Method: PREINCUBATION): active; positive | mutagenic call (Test System: AMES SALMONELLA TYPHIMURIUM, Strain/Indicator: TA1537, Metabolic Activation: RAT, LIVER, S-9, TETRACHLOROBIPHENYL, Method: PREINCUBATION): active; positive | mutagenic call (Test System: AMES SALMONELLA TYPHIMURIUM, Strain/Indicator: TA1538, Metabolic Activation: NONE, Method: PREINCUBATION): inactive; negative | mutagenic call (Test System: AMES SALMONELLA TYPHIMURIUM, Strain/Indicator: TA1538, Metabolic Activation: RAT, LIVER, S-9, TETRACHLOROBIPHENYL, Method: PREINCUBATION): inactive; negative | mutagenic call (Test System: AMES SALMONELLA TYPHIMURIUM, Strain/Indicator: TA1977, Metabolic Activation: NONE, Method: PREINCUBATION): active; positive | mutagenic call (Test System: AMES SALMONELLA TYPHIMURIUM, Strain/Indicator: TA1977, Metabolic Activation: RAT, LIVER, S-9, TETRACHLOROBIPHENYL, Method: PREINCUBATION): active; positive

O=Nc1cccc(-c2ccccc2)c1
mutagenic call [1]: active; positive | mutagenic call [2]: active; positive

O=CN(O)c1ccc2ccccc2c1
mutagenic call (Test System: AMES SALMONELLA TYPHIMURIUM, Strain/Indicator: TA98, Metabolic Activation: NONE, Method: PREINCUBATION): active; positive | mutagenic call (Test System: AMES SALMONELLA TYPHIMURIUM, Strain/Indicator: TA98, Metabolic Activation: RAT, LIVER, CYTOSOL, Method: PREINCUBATION): active; positive | mutagenic call (Test System: AMES SALMONELLA TYPHIMURIUM, Strain/Indicator: TA98, Metabolic Activation: RAT, LIVER, MICROSOMES, Method: PREINCUBATION): active; positive

Oc1cc(O)c2c(c1)O[C@H](c1ccc(O)c(O)c1)[C@H](O)C2
mutagenic call (Test System: Ames Salmonella typhimurium, Strain/Indicator: TA102, Metabolic Activation: None, Method: Preincubation): inactive; negative | mutagenic call (Test System: Ames Salmonella typhimurium, Strain/Indicator: TA102, Metabolic Activation: Rat, Liver, S-9, Aroclor 1254 in 0.154 M KCl, Method: Preincubation): inactive; negative

O=C(C(Cl)Cl)C(Cl)Cl
mutagenic call [1]: active; positive | mutagenic call [2]: active; positive

Cc1cccc2ccc3c4ccccc4ccc3c12
mutagenic call (Test System: AMES SALMONELLA TYPHIMURIUM, Strain/Indicator: TA100, Metabolic Activation: RAT, LIVER, MICROSOMES, 4-METHYLCHRYSENE, Method: STANDARD PLATE): inactive; negative | mutagenic call (Test System: AMES SALMONELLA TYPHIMURIUM, Strain/Indicator: TA100, Metabolic Activation: RAT, LIVER, MICROSOMES, AROCLOR 1254, Method: STANDARD PLATE): active; positive | mutagenic call (Test System: AMES SALMONELLA TYPHIMURIUM, Strain/Indicator: TA100, Metabolic Activation: RAT, LIVER, MICROSOMES, Method: STANDARD PLATE): inactive; negative

CC(C)(c1ccc(OCC(O)CO)cc1)c1ccc(OCC(O)CO)cc1 (stereo not given)
mutagenic call [1]: inactive; negative | mutagenic call (Test System: AMES SALMONELLA TYPHIMURIUM, Strain/Indicator: TA98, Metabolic Activation: RAT LIVER S-9, PHENOBARBITAL/METHYLCHOLANTHRENE (4%), Method: STANDARD PLATE): inactive; negative | mutagenic call [2]: inactive; negative | mutagenic call (Test System: AMES SALMONELLA TYPHIMURIUM, Strain/Indicator: TA100, Metabolic Activation: RAT LIVER S-9, PHENOBARBITAL/METHYLCHOLANTHRENE (4%), Method: STANDARD PLATE): inactive; negative | mutagenic call [3]: inactive; negative | mutagenic call (Test System: AMES SALMONELLA TYPHIMURIUM, Strain/Indicator: TA1535, Metabolic Activation: RAT LIVER S-9, PHENOBARBITAL/METHYLCHOLANTHRENE (10%), Method: STANDARD PLATE): inactive; negative | mutagenic call [4]: inactive; negative | mutagenic call (Test System: AMES SALMONELLA TYPHIMURIUM, Strain/Indicator: TA1737, Metabolic Activation: RAT LIVER S-9, PHENOBARBITAL/METHYLCHOLANTHRENE (10%), Method: STANDARD PLATE): inactive; negative

C=CC(=O)OCCCCCC
mutagenic call [1]: inactive; negative | mutagenic call (Test System: AMES SALMONELLA TYPHIMURIUM, Strain/Indicator: TA98, Metabolic Activation: RAT, LIVER, S-9, AROCLOR 1254, Method: STANDARD PLATE): inactive; negative | mutagenic call (Test System: AMES SALMONELLA TYPHIMURIUM, Strain/Indicator: TA98, Metabolic Activation: RAT, LIVER, S-9, SODIUM PHENOBARBITAL, Method: STANDARD PLATE): inactive; negative | mutagenic call (Test System: AMES SALMONELLA TYPHIMURIUM, Strain/Indicator: TA100, Metabolic Activation: NONE, Method: PREINCUBATION): inactive; negative | mutagenic call [2]: inactive; negative | mutagenic call (Test System: AMES SALMONELLA TYPHIMURIUM, Strain/Indicator: TA100, Metabolic Activation: RAT, LIVER, S-9, AROCLOR 1254, Method: PREINCUBATION): inactive; negative | mutagenic call (Test System: AMES SALMONELLA TYPHIMURIUM, Strain/Indicator: TA100, Metabolic Activation: RAT, LIVER, S-9, AROCLOR 1254, Method: STANDARD PLATE): inactive; negative | mutagenic call (Test System: AMES SALMONELLA TYPHIMURIUM, Strain/Indicator: TA100, Metabolic Activation: RAT, LIVER, S-9, SODIUM PHENOBARBITAL, Method: STANDARD PLATE): inactive; negative | mutagenic call [3]: inactive; negative | mutagenic call (Test System: AMES SALMONELLA TYPHIMURIUM, Strain/Indicator: TA1535, Metabolic Activation: RAT, LIVER, S-9, AROCLOR 1254, Method: STANDARD PLATE): inactive; negative | mutagenic call (Test System: AMES SALMONELLA TYPHIMURIUM, Strain/Indicator: TA1535, Metabolic Activation: RAT, LIVER, S-9, SODIUM PHENOBARBITAL, Method: STANDARD PLATE): inactive; negative | mutagenic call [4]: inactive; negative | mutagenic call (Test System: AMES SALMONELLA TYPHIMURIUM, Strain/Indicator: TA1537, Metabolic Activation: RAT, LIVER, S-9, AROCLOR 1254, Method: STANDARD PLATE): inactive; negative | mutagenic call (Test System: AMES SALMONELLA TYPHIMURIUM, Strain/Indicator: TA1537, Metabolic Activation: RAT, LIVER, S-9, SODIUM PHENOBARBITAL, Method: STANDARD PLATE): inactive; negative | mutagenic call (Test System: AMES SALMONELLA TYPHIMURIUM, Strain/Indicator: TA1538, Metabolic Activation: NONE, Method: STANDARD PLATE): inactive; negative | mutagenic call (Test System: AMES SALMONELLA TYPHIMURIUM, Strain/Indicator: TA1538, Metabolic Activation: RAT, LIVER, S-9, AROCLOR 1254, Method: STANDARD PLATE): inactive; negative | mutagenic call (Test System: AMES SALMONELLA TYPHIMURIUM, Strain/Indicator: TA1538, Metabolic Activation: RAT, LIVER, S-9, SODIUM PHENOBARBITAL, Method: STANDARD PLATE): inactive; negative
